Experimental data reported in patent publication US11591323B2, “Muscarinic agonists as non-steroidal and non-opioid analgesics and methods of use thereof” (Barry University, priority 2019, dated 2023).
Where two headings read alike, the source gives them in different places.

How the values were obtained:
Parameters in all cases: host or cells: CHO cells, stably transfected
[1] = target: T1, M2 muscarinic receptor (Homo sapiens, UniProt P08172); assay: [3H]NMS competition binding, M2 CHO membranes
T1 sequence (P08172 1-466): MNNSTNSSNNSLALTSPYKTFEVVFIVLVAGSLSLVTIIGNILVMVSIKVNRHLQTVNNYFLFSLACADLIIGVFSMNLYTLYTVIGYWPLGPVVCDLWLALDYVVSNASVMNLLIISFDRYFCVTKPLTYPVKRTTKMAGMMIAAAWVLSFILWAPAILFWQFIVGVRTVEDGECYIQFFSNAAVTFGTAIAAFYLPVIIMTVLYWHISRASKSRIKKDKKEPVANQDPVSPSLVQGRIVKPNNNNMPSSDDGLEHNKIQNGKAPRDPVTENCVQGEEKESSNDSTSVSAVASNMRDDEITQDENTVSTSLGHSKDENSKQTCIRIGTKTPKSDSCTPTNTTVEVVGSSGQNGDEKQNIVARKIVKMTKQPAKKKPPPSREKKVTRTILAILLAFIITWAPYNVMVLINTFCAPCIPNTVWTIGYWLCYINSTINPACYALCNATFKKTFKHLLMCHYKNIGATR

[2] = target: T2, M1 muscarinic receptor (Homo sapiens, UniProt P11229); assay: accumulation of inositol phosphates IPX, M1 CHO cells (M1Gq); assay type: cell-based; settings: for E′MAX / τ / Kd / EC50: Table 7; for τ: operational efficacy; for Kd: operational model, read-out: pKA (converted); for EC50: read-out: pEC50 (converted)
T2 sequence (P11229 1-460): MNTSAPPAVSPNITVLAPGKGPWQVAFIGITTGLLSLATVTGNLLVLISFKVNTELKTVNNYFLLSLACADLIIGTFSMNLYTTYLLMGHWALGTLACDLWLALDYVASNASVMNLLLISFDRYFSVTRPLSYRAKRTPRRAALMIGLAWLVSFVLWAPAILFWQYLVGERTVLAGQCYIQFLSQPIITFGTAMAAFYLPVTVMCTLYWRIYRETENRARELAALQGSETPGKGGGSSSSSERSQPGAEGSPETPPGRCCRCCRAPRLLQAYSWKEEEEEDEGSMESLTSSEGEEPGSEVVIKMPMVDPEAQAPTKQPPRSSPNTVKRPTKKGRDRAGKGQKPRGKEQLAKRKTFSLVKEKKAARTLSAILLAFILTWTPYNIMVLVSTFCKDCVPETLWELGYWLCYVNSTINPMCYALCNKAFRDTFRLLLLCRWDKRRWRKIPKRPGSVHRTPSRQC

[3] = target: T3, M5 muscarinic receptor (Homo sapiens, UniProt P08912); assay: accumulation of IPX, M5 CHO cells (M5Gq); assay type: cell-based; settings: for τ: operational efficacy; for RAi: relative to carbachol; for RAi / Δlog(τ/KA): Tables 2, 3, 7; for Δlog(τ/KA): to carbachol
T3 sequence (P08912 1-532): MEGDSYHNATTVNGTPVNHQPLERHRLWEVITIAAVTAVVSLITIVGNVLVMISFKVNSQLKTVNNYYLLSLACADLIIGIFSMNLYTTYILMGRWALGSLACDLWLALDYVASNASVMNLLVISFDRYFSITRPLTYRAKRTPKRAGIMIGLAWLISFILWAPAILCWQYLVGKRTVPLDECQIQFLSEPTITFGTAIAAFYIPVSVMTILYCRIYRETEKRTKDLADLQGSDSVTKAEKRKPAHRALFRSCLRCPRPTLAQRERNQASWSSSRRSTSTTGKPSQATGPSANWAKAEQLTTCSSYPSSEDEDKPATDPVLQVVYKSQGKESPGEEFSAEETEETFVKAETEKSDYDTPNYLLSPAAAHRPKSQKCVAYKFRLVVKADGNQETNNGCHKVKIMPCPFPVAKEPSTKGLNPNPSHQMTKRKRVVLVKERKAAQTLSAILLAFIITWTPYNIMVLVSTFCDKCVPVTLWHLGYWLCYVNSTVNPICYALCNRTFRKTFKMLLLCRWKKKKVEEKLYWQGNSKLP

[4] = target: T4, M4 muscarinic receptor (Homo sapiens, UniProt P08173); assay: inhibition of forskolin-stimulated cAMP, M4 CHO cells (M4Gi); assay type: cell-based; settings: for Emax: CHO; for τ: operational efficacy; for RAi: relative to carbachol; for RAi / Δlog(τ/KA): Tables 2, 3, 7; for Δlog(τ/KA): to carbachol
T4 sequence (P08173 1-479): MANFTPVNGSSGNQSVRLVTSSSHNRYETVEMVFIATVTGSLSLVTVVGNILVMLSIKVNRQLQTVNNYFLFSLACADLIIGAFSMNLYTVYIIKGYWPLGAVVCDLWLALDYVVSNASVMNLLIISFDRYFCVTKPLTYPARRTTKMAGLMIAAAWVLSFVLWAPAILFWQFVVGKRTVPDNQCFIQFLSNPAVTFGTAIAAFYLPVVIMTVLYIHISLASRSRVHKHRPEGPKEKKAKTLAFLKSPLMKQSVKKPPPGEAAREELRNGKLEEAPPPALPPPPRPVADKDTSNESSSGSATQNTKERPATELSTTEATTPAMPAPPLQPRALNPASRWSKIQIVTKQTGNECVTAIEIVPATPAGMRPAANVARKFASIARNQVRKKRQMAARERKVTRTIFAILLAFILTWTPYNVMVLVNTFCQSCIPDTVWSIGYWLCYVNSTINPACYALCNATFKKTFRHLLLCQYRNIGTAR

[5] = target: T4, M4 muscarinic receptor; assay: [3H]NMS competition binding, M4 CHO membranes; settings: for binding that occurred with high affinity: fraction of binding to M4
[6] = target: M3 muscarinic receptor (Homo sapiens, UniProt P20309); assay: [3H]NMS competition binding, M3 CHO membranes; settings: competition with 1 nM [3H]NMS; read-out: Inhibition constants (Ki) as negative logarithms, M3 (converted)
[7] = target: T2, M1 muscarinic receptor; assay: [3H]NMS competition binding, M1 CHO membranes; settings: competition with 1 nM [3H]NMS; read-out: Inhibition constants (Ki) as negative logarithms, M1 (converted)
[8] = competition with 1 nM [3H]NMS, read-out: Inhibition constants (Ki) as negative logarithms, M2 (converted)
[9] = M1 (↑IPX), preferential response
[10] = M1 (↑IPX), preferential response, relative to carbachol, Tables 2, 3, 7
[11] = M1 (↑IPX), preferential response, to carbachol, Tables 2, 3, 7
[12] = M5 (↑IPX), preferential response, Table 7
[13] = M5 (↑IPX), preferential response, Table 7, operational model, read-out: pKA (converted)
[14] = M5 (↑IPX), preferential response, Table 7, read-out: pEC50 (converted)
[15] = M5 (↑IPX), preferential response
[16] = M4 (↓cAMP), preferential response, Table 7, read-out: E′MAX
[17] = M4 (↓cAMP), preferential response, Table 7
[18] = M4 (↓cAMP), preferential response, Table 7, operational model, read-out: pKA (converted)
[19] = M4 (↓cAMP), preferential response, Table 7, read-out: pEC50 (converted)
[20] = M4 (↓cAMP), preferential response
[21] = competition with 1 nM [3H]NMS, read-out: Inhibition constants (Ki) as negative logarithms, M4 (converted)
[22] = high-affinity fraction of binding to M2, read-out: high affinity binding
[23] = high-affinity fraction of binding to M4, read-out: high affinity binding

M3 muscarinic receptor, sequence (P20309 whole entry): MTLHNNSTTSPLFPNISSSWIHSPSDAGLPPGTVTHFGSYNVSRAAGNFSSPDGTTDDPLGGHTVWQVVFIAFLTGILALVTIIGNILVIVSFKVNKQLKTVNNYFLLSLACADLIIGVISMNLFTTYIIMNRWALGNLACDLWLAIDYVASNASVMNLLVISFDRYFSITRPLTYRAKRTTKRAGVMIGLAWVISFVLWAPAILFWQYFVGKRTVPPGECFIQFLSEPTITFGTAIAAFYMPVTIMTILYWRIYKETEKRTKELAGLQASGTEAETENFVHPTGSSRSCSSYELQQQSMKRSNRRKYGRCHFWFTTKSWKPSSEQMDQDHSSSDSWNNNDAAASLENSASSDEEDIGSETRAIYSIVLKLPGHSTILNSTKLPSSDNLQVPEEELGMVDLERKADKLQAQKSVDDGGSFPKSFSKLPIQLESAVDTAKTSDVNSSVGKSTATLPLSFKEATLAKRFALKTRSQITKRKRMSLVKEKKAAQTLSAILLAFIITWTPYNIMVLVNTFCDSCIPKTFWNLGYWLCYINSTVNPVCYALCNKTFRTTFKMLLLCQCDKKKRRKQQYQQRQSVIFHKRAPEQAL

| Structure (SMILES) | Ki [1, 8] | E′MAX [2, 9] | τ [2, 9] | Kd [2, 9] | EC50 [2, 9] | RAi [2, 10] | Δlog(τ/KA) [2, 11] | E′MAX [3, 12] | τ [3, 12] | Kd [3, 13] | EC50 [3, 14] | RAi [3, 15] | Δlog(τ/KA) [3, 15] | Emax [4, 16] | τ [4, 17] | Kd [4, 18] | RAi [4, 20] | Δlog(τ/KA) [4, 20] | Ki [6] | Ki [7] | also measured |
| --- | --- | --- | --- | --- | --- | --- | --- | --- | --- | --- | --- | --- | --- | --- | --- | --- | --- | --- | --- | --- | --- |
| Brc1ccc(CN2CC=CCC2)s1.Cl [Compound 6C, 1-[(5-bromothiophen-2-yl)methyl]-1,2,3,6-tetrahydropyridin-1-ium chloride] | 10 µM | 2.1 ± 0.2 fold over basal | 0.03 ± 0.01 | 3.98 µM | 3.47 µM | 0.0024 ± 0.0002 | 2.62 ± 0.36 | 1.36 ± 0.08 fold over basal | 0.02 ± 0.01 | 7.94 µM | 7.59 µM | 0.0009 ± 0.0003 | 3.03 ± 0.95 | 13 ± 1% | 0.38 ± 0.04 | 2.51 µM | 0.0041 ± 0.005 | 2.13 ± 0.12 | 14.1 µM | 7.59 µM | EC50 [4, 19]: 2.14 µM; Ki [5, 21]: 12.6 µM |
| C[N+]1(Cc2ccc(Cl)s2)CC=CCC1.[I-] (stereo not drawn) [Compound 7D, 1-[(5-chlorothiophen-2-yl)methyl]-1-methyl-1,2,3,6-tetrahydropyridin-1-ium iodide] |  | 7.9 ± 0.8 fold over basal | 0.26 ± 0.03 | 3.98 µM | 3.39 µM |  |  | 3.5 ± 0.2 fold over basal | 0.14 ± 0.01 |  |  | 0.0049 ± 0.0006 | 2.31 ± 0.50 |  | 0.46 ± 0.05 |  | 0.0048 ± 0.0005 | 2.14 ± 0.19 | 3.39 µM | 1.38 µM | Ki ([1]; Inhibition constants (Ki) as negative logarithms, M2, competition with 1 nM [3H]NMS): 0.692 µM; Ki ([1]; Inhibition constants Ki, at M2 receptors): 0.7 µM; RAi [2]: 0.0165 ± 0.0003; Δlog(τ/KA) [2]: 1.78 ± 0.21; Kd [3]: 12.6 µM; EC50 ([3]; pEC50, M5 (↑IPX), preferential response, Table 7): 9.77 µM; EC50 [4]: 4.68 µM; Kd [4]: 6.31 µM; Emax [4]: 28 ± 1%; Ki ([5]; Inhibition constants (Ki) as negative logarithms, M4, competition with 1 nM [3H]NMS): 3.09 µM |
| Cc1ccc(CN2CC=CCC2)s1.Cl [Compound 6B, 1-[(5-methylthiophen-2-yl)methyl]-1,2,3,6-tetrahydropyridin-1-ium chloride] | 10.2 µM | 2.0 ± 0.2 fold over basal | 0.03 ± 0.01 | 15.8 µM | 15.8 µM | 0.0005 ± 0.0001 | 3.28 ± 0.38 | 1.7 ± 0.1 fold over basal | 0.04 ± 0.01 | 15.8 µM | 15.1 µM | 0.0009 ± 0.0005 | 3.04 ± 0.66 | 25 ± 2% | 0.39 ± 0.04 | 12.6 µM | 0.0020 ± 0.0002 | 2.51 ± 0.20 | 22.9 µM | 25.1 µM | Ki [1, 22]: ~0.03 µM; EC50 [4, 19]: 9.77 µM; Ki [5, 21]: 28.8 µM; binding that occurred with high affinity [5]: ~10%; Ki [5, 23]: ~0.03 µM; Ki ([5]; high-affinity fraction, M4, read-out: pKI of high affinity binding (converted)): 0.02 µM |
| Cc1ccc(C[N+]2(C)CC=CCC2)s1.[I-] (stereo not drawn) [Compound 7B, 1-methyl-1-[(5-methylthiophen-2-yl)methyl]-1,2,3,6-tetrahydropyridin-1-ium iodide] | 2.29 µM | 3.9 ± 0.4 fold over basal | 0.09 ± 0.01 | 5.01 µM | 5.01 µM | 0.0058 ± 0.0007 | 2.24 ± 0.18 | 1.47 ± 0.07 fold over basal | 0.02 ± 0.01 | 5.01 µM | 4.37 µM | 0.0021 ± 0.0009 | 2.67 ± 0.41 | 30 ± 1% | 0.51 ± 0.05 | 3.98 µM | 0.0087 ± 0.0009 | 1.90 ± 0.18 | 5.25 µM | 3.98 µM | Ki [1, 22]: ~0.03 µM; EC50 [4, 19]: 2.88 µM; Ki [5, 21]: 4.37 µM; binding that occurred with high affinity [5]: ~10%; Ki [5, 23]: ~0.03 µM |
